Read-outs that look alike come from different tables or passages of the source.
Legend:
Ls-AChBP = Ls-AChBP (Lymnaea stagnalis, UniProt P58154); experiment: biochemical; format: binding
Procedure: (§1) Competitive binding assays with ^3H-epibatidine were carried out as previously published with minor modifications (see Text S1). Electrophysiological assays were carried out using the two-electrode voltage clamp technique. The cDNA encoding human α1 GlyR was subcloned into pGEM-HE for oocyte expression with a PCR strategy and verified by sequencing. The cDNA was linearized with NheI and transcribed with the T7 mMessage mMachine kit from Ambion. The cDNA encoding the human α7 nAChR was cloned into pMXT and linearized with BamHI for transcription with the SP6 mMessage mMachine kit from Ambion. All mutants were engineered using a Quikchange method (Stratagene) and verified by sequencing. Recordings were obtained from oocytes 2–5 d after injection with 50 nl of ∼1 ng/nl RNA. […] Student's t test was used for statistical comparison of paired observations.
Human neuroblastoma cells (SH-SY5Y) stably expressing human α7 nAChR were obtained from Christian Fuhrer (Department of Neurochemistry, Brain Research Institute, University of Zurich). […] The SPA beads were allowed to settle for 2-4 h and the radioactivity was measured in a Wallac 1450 MicroBeta liquid scintillation counter.

human α7 nAChR = target: T1, human α7 nAChR (Homo sapiens, UniProt P36544); experiment: biochemical; format: binding
T1 construct: expressed in transfected cells
T1 sequence (P36544 23-502): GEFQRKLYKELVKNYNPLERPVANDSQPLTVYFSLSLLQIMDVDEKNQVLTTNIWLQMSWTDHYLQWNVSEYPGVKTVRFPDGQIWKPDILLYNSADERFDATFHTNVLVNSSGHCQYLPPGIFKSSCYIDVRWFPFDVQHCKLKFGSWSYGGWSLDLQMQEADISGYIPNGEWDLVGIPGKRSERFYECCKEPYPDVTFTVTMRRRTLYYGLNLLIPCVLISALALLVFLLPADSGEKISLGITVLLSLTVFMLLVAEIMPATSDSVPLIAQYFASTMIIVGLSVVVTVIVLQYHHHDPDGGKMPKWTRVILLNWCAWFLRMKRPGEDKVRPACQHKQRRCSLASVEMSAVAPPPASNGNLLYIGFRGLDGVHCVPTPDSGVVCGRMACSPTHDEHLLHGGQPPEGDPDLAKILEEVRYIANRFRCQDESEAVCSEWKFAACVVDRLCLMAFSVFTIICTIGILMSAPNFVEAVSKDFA
Procedure: Human neuroblastoma cells (SH-SY5Y) stably expressing human α7 nAChR were obtained from Christian Fuhrer (Department of Neurochemistry, Brain Research Institute, University of Zurich). The cells were maintained in DMEM/F12 (Dulbecco's Modified Eagle Medium / Nutrient Mixture F-12) supplemented with 10% fetal calf serum (FCS), 50 IU/mL penicillin, 50 µg/mL streptomycin and 0.1 mg/ml geneticin in 5% CO2 humidified atmosphere at 37°C. Batches of cells from several passages were washed 3x with PBS, harvested and after centrifuging aliquots, the cell-pellets were stored at -80°C until use. Although there appeared to be little batch-to-batch variation, only one passage was used for the triplicate experiments as described below. […] The SPA beads were allowed to settle for 2-4 h and the radioactivity was measured in a Wallac 1450 MicroBeta liquid scintillation counter. All radioligand binding data were evaluated by a nonlinear, least-squares curve fitting procedure using Graphpad Prism (version 5.0a, GraphPad Software, Inc., San Diego, CA). […]
Frozen cell pellets with the human α7 nAChR were thawed, homogenized in ice-cold binding buffer, sonicated before use and added at 0.1 mg/ml. […] After drying the filter-plates, scintillation fluid (MicroScint, Perkin Elmer) was added and the radioactivity was measured as above.

human α7 nAChR wt = target: T2, human α7 nAChR wt (Homo sapiens, UniProt P36544); experiment: Two-electrode voltage clamp, wild type α7 nAChR in Xenopus oocytes; format: cell-based; conditions: co-applied with EC50 acetylcholine
T2 construct: expressed in transfected cells; host or cells: Xenopus oocytes injected with cRNA (pMXT)
T2 sequence (P36544 23-502): as above
Text: (§2) To address this question, we performed alanine-scanning mutagenesis of the homologous residues in the human GlyR or nAChR using structure-based sequence alignments with AChBP (see Figure S1). The two-electrode voltage-clamp technique was used to measure ligand potency on wild type and mutant GlyR or nAChR expressed in Xenopus oocytes. […] One of these mutants, F207A, was previously characterized in the work from Grundzinska et al..
(§3) For d-TC, previous mutagenesis studies have been carried out either on the muscle-type nAChR [1] or 5-HT3R [5],[12]. […] Both model systems either complicate the mutational analysis or make it difficult to derive conclusions that can be generalized to other CLRs. Here, we chose the human α7 nAChR to characterize the effect of homologous contact mutations on the potency of d-TC. The α7 nAChR, which is also a target of d-TC [4], is closely related to Ac-AChBP and is an attractive model system to extrapolate the results obtained from our X-ray crystal structures.
(§4) Competitive binding assays with ^3H-epibatidine were carried out as previously published with minor modifications (see Text S1). Electrophysiological assays were carried out using the two-electrode voltage clamp technique. The cDNA encoding human α1 GlyR was subcloned into pGEM-HE for oocyte expression with a PCR strategy and verified by sequencing. […]

human α7 nAChR Y93A = target: T3, human α7 nAChR Y93A (Homo sapiens, UniProt P36544, Y115A); experiment: Two-electrode voltage clamp, α7 nAChR Y93A in Xenopus oocytes; format: cell-based; conditions: co-applied with EC50 acetylcholine
T3 construct: expressed in transfected cells; host or cells: Xenopus oocytes injected with cRNA (pMXT)
T3 sequence (P36544 23-502 Y115A): as the sequence (P36544 23-502) above, with Y93A counted along it
Text: as §2, §3, §4

human α7 nAChR S148A = target: T4, human α7 nAChR S148A (Homo sapiens, UniProt P36544, S170A); experiment: Two-electrode voltage clamp, α7 nAChR S148A in Xenopus oocytes; format: cell-based; conditions: co-applied with EC50 acetylcholine
T4 construct: expressed in transfected cells; host or cells: Xenopus oocytes injected with cRNA (pMXT)
T4 sequence (P36544 23-502 S170A): as the sequence (P36544 23-502) above, with S148A counted along it
Text: as §2, §3, §4

human α7 nAChR E193A = target: T5, human α7 nAChR E193A (Homo sapiens, UniProt P36544, E215A); experiment: Two-electrode voltage clamp, α7 nAChR E193A in Xenopus oocytes; format: cell-based; conditions: co-applied with EC50 acetylcholine
T5 construct: expressed in transfected cells; host or cells: Xenopus oocytes injected with cRNA (pMXT)
T5 sequence (P36544 23-502 E215A): as the sequence (P36544 23-502) above, with E193A counted along it
Text: as §2, §3, §4

human α7 nAChR S36A = target: T6, human α7 nAChR S36A (Homo sapiens, UniProt P36544, S58A); experiment: Two-electrode voltage clamp, α7 nAChR S36A in Xenopus oocytes; format: cell-based; conditions: co-applied with EC50 acetylcholine
T6 construct: expressed in transfected cells; host or cells: Xenopus oocytes injected with cRNA (pMXT)
T6 sequence (P36544 23-502 S58A): as the sequence (P36544 23-502) above, with S36A counted along it
Text: as §2, §3, §4

human α7 nAChR W55A = target: T7, human α7 nAChR W55A (Homo sapiens, UniProt P36544, W77A); experiment: Two-electrode voltage clamp, α7 nAChR W55A in Xenopus oocytes; format: cell-based; conditions: co-applied with EC50 acetylcholine
T7 construct: expressed in transfected cells; host or cells: Xenopus oocytes injected with cRNA (pMXT)
T7 sequence (P36544 23-502 W77A): as the sequence (P36544 23-502) above, with W55A counted along it
Text: as §2, §3, §4

human α7 nAChR Q117A = target: T8, human α7 nAChR Q117A (Homo sapiens, UniProt P36544, Q139A); experiment: Two-electrode voltage clamp, α7 nAChR Q117A in Xenopus oocytes; format: cell-based; conditions: co-applied with EC50 acetylcholine
T8 construct: expressed in transfected cells; host or cells: Xenopus oocytes injected with cRNA (pMXT)
T8 sequence (P36544 23-502 Q139A): as the sequence (P36544 23-502) above, with Q117A counted along it
Text: as §2, §3, §4

human α7 nAChR L119A = target: T9, human α7 nAChR L119A (Homo sapiens, UniProt P36544, L141A); experiment: Two-electrode voltage clamp, α7 nAChR L119A in Xenopus oocytes; format: cell-based; conditions: co-applied with EC50 acetylcholine
T9 construct: expressed in transfected cells; host or cells: Xenopus oocytes injected with cRNA (pMXT)
T9 sequence (P36544 23-502 L141A): as the sequence (P36544 23-502) above, with L119A counted along it
Text: as §2, §3, §4

human α7 nAChR G167A = target: T10, human α7 nAChR G167A (Homo sapiens, UniProt P36544, G189A); experiment: Two-electrode voltage clamp, α7 nAChR G167A in Xenopus oocytes; format: cell-based; conditions: co-applied with EC50 acetylcholine
T10 construct: expressed in transfected cells; host or cells: Xenopus oocytes injected with cRNA (pMXT)
T10 sequence (P36544 23-502 G189A): as the sequence (P36544 23-502) above, with G167A counted along it
Text: as §2, §3, §4

mouse 5-HT3R = target: mouse 5-HT3R; parameters: method as in PMID 10026168; conditions: taken from previous study; cited from earlier work
muscle-type nAChR = system: muscle-type nAChR; parameters: method as in PMID 8415719; conditions: heteropentameric muscle-type nAChR; cited from earlier work
5-HT3R = conditions: human versus mouse 5-HT3R; cited from earlier work
human α1 GlyR A101F = human α1 GlyR A101F (Homo sapiens, UniProt P23415, A129F); experiment: cell-based; conditions: for mut/wt: IC50 α1 GlyR A101F over wt
human α1 GlyR A101F, sequence (P23415 29-457 A129F): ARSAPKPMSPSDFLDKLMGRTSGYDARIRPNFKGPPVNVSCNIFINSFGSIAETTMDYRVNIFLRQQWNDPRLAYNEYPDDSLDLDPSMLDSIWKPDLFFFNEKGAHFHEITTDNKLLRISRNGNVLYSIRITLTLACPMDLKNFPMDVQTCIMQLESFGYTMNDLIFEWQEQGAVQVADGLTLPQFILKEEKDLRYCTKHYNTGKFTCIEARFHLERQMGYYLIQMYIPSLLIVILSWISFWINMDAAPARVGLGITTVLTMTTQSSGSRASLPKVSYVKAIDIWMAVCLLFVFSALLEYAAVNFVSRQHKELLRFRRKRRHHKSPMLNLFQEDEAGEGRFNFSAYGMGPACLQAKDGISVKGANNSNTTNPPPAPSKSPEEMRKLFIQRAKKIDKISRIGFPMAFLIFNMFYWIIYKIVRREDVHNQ
Procedure: as §2, §1

human α1 GlyR F207A = human α1 GlyR F207A (Homo sapiens, UniProt P23415, F235A); experiment: cell-based
human α1 GlyR F207A, sequence (P23415 29-457 F235A): as the sequence (P23415 29-457 A129F) above, with F101A, F207A counted along it
Procedure: as §2, §1

human α1 GlyR F44A = human α1 GlyR F44A (Homo sapiens, UniProt P23415, F72A); experiment: cell-based; conditions: for mut/wt: IC50 α1 GlyR F44A over wt
human α1 GlyR F44A, sequence (P23415 29-457 F72A): as the sequence (P23415 29-457 A129F) above, with F44A, F101A counted along it
Procedure: as §2, §1

human α1 GlyR I210A = human α1 GlyR I210A (Homo sapiens, UniProt P23415, I238A); experiment: cell-based
human α1 GlyR I210A, sequence (P23415 29-457 I238A): as the sequence (P23415 29-457 A129F) above, with F101A, I210A counted along it
Procedure: as §2, §1

human α1 GlyR L127A = human α1 GlyR L127A (Homo sapiens, UniProt P23415, L155A); experiment: cell-based; conditions: for mut/wt: IC50 α1 GlyR L127A over wt
human α1 GlyR L127A, sequence (P23415 29-457 L155A): as the sequence (P23415 29-457 A129F) above, with F101A, L127A counted along it
Procedure: as §2, §1

human α1 GlyR Q177A = human α1 GlyR Q177A (Homo sapiens, UniProt P23415, Q205A); experiment: cell-based; conditions: for mut/wt: IC50 α1 GlyR Q177A over wt
human α1 GlyR Q177A, sequence (P23415 29-457 Q205A): as the sequence (P23415 29-457 A129F) above, with F101A, Q177A counted along it
Procedure: as §2, §1

human α1 GlyR Q67A = human α1 GlyR Q67A (Homo sapiens, UniProt P23415, Q95A); experiment: cell-based; conditions: for mut/wt: IC50 α1 GlyR Q67A over wt
human α1 GlyR Q67A, sequence (P23415 29-457 Q95A): as the sequence (P23415 29-457 A129F) above, with Q67A, F101A counted along it
Procedure: as §2, §1

human α1 GlyR S129A = human α1 GlyR S129A (Homo sapiens, UniProt P23415, S157A); experiment: cell-based; conditions: for mut/wt: IC50 α1 GlyR S129A over wt
human α1 GlyR S129A, sequence (P23415 29-457 S157A): as the sequence (P23415 29-457 A129F) above, with F101A, S129A counted along it
Procedure: as §2, §1

human α1 GlyR S158A = human α1 GlyR S158A (Homo sapiens, UniProt P23415, S186A); experiment: cell-based; conditions: for mut/wt: IC50 α1 GlyR S158A over wt
human α1 GlyR S158A, sequence (P23415 29-457 S186A): as the sequence (P23415 29-457 A129F) above, with F101A, S158A counted along it
Procedure: as §2, §1

human α1 GlyR wt = human α1 GlyR wt (Homo sapiens, UniProt P23415); experiment: cell-based
human α1 GlyR wt, sequence (P23415 29-457): as the sequence (P23415 29-457 A129F) above, with F101A counted along it
Procedure: as §2, §1

α1 GlyR F63A [1] = conditions: IC50 α1 GlyR F63A (ref 23) over wt
α1 GlyR R65A [2] = conditions: IC50 α1 GlyR R65A (ref 23) over wt
human α1 GlyR = conditions: taken from previous study; cited from earlier work
α1 GlyR F63A [3] = conditions: ref Grudzinska et al. 23; cited from earlier work
α1 GlyR R65A [4] = conditions: ref Grudzinska et al. 23; cited from earlier work

Ls-AChBP, sequence (P58154 20-229): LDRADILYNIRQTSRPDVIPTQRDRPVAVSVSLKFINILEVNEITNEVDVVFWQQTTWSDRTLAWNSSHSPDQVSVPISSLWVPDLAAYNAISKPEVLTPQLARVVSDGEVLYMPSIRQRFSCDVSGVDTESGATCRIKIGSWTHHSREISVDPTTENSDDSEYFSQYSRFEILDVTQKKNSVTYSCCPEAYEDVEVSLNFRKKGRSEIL

SMILES: COc1cc2c3cc1Oc1cc(ccc1O)C[C@@H]1c4c(cc(OC)c(O)c4Oc4ccc(cc4)C[C@@H]3N(C)CC2)CC[N+]1(C)C [d-tubocurarine]
- Ki (Ls-AChBP): 0.171 ± 0.0183 µM
- Ki (human α7 nAChR; competition with 3H-methyllycaconitine, human α7 nAChR, read-out: Ki): 2.98 µM
- IC50 (human α7 nAChR wt): 1.19 ± 0.17 µM
- IC50 (human α7 nAChR Y93A): 7.81 ± 0.98 µM
- IC50 (human α7 nAChR S148A): 176 ± 10.8 µM
- IC50 (human α7 nAChR E193A): 8.1 ± 0.68 µM
- IC50 (human α7 nAChR S36A): 2.25 ± 0.52 µM
- IC50 (human α7 nAChR W55A): 16.7 ± 0.94 µM
- IC50 (human α7 nAChR Q117A): 2.28 ± 0.14 µM
- IC50 (human α7 nAChR L119A): 9.19 ± 2.16 µM
- IC50 (human α7 nAChR G167A): significant decrease in the IC50-values
- IC50 (human α7 nAChR G167A; read-out: IC50): 0.043 ± 0.002 µM
- Ki (mouse 5-HT3R): 0.138 ± 0.022 µM
- difference in affinity between the two binding sites (muscle-type nAChR): 100 fold
- difference in affinity between human and mouse 5-HT3R (5-HT3R): more than 1,000 fold

SMILES: O=C1C[C@@H]2OCC=C3CN4CC[C@]56c7ccccc7N1[C@H]5[C@H]2[C@H]3C[C@H]46 [strychnine]
- Ki (Ls-AChBP): 0.224 ± 0.0263 µM
- Ki (human α7 nAChR): 4.85 µM
- IC50 (human α1 GlyR A101F): 0.583 ± 0.0476 µM
- mut/wt (human α1 GlyR A101F): ~10
- mut/wt (human α1 GlyR A101F; listed as Strychnine): 12
- IC50 (human α1 GlyR F207A): 5590 ± 1890 µM
- mut/wt (human α1 GlyR F207A; IC50 α1 GlyR F207A over wt): 119,444
- IC50 (human α1 GlyR F44A): 0.13 ± 0.00406 µM
- mut/wt (human α1 GlyR F44A): 3
- mut/wt (human α1 GlyR F44A; listed as Strychnine): 2.8
- IC50 (human α1 GlyR I210A): 0.103 ± 0.019 µM
- mut/wt (human α1 GlyR I210A; IC50 α1 GlyR I210A over wt): 2.2
- IC50 (human α1 GlyR L127A): 0.376 ± 0.0692 µM
- mut/wt (human α1 GlyR L127A): ~10
- mut/wt (human α1 GlyR L127A; listed as Strychnine): 8
- IC50 (human α1 GlyR Q177A): 0.00336 ± 0.00063 µM
- mut/wt (human α1 GlyR Q177A): apparent increase in strychnine-potency
- mut/wt (human α1 GlyR Q177A; listed as Strychnine): 0.1
- IC50 (human α1 GlyR Q177A; α1 GlyR Q177A, co-applied with EC50 glycine): significant decrease in the IC50-values
- IC50 (human α1 GlyR Q67A): 0.689 ± 0.176 µM
- mut/wt (human α1 GlyR Q67A): 15
- mut/wt (human α1 GlyR Q67A; listed as Strychnine): 14.7
- IC50 (human α1 GlyR S129A): 0.358 ± 0.144 µM
- mut/wt (human α1 GlyR S129A): ~10
- mut/wt (human α1 GlyR S129A; listed as Strychnine): 8
- IC50 (human α1 GlyR S158A): 13.8 µM
- mut/wt (human α1 GlyR S158A): 300
- mut/wt (human α1 GlyR S158A; listed as Strychnine): 294
- IC50 (human α1 GlyR wt): 0.0468 ± 0.00875 µM
- mut/wt (α1 GlyR F63A [1]): 250
- mut/wt (α1 GlyR F63A [1]; listed as Strychnine): 256
- mut/wt (α1 GlyR R65A [2]): 3
- mut/wt (α1 GlyR R65A [2]; listed as Strychnine): 3.4
- Ki (human α1 GlyR): 0.016 ± 0.002 µM
- IC50 (α1 GlyR F63A [3]): 12 µM
- IC50 (α1 GlyR R65A [4]): 0.16 ± 0.05 µM

Reference: publication PMC3066128 (PLoS Biology, 2011)
